Two compounds from patent publication EP0880540B1, “17-BETA-CYCLOPROPYL(AMINO/OXY) 4-AZA STEROIDS AS ACTIVE INHIBITORS OF TESTOSTERONE 5-ALPHA-REDUCTASE AND C17-20-LYASE” (Aventis Pharmaceuticals Inc., priority 1996, dated 1997) can be followed below.

The subject of one test is PC-82 Human Tumor. Kind of test: PC-82 human tumor growth in nude mice. Type of test: in vivo, male nude mice. The note with it: MDL 103432 and MDL 105831 50 mg/kg B.I.D., MDL 15910 15 mg/kg B.I.D., per os; for Tumor Growth in PC-82 Human Tumor in Male Nude Mice, Day 7 / Tumor Growth in PC-82 Human Tumor in Male Nude Mice, Day 15 / Tumor Growth in PC-82 Human Tumor in Male Nude Mice, Day 21 / Tumor Growth in PC-82 Human Tumor in Male Nude Mice, Day 28 / Tumor Growth in PC-82 Human Tumor in Male Nude Mice, Day 35 / Tumor Growth in PC-82 Human Tumor in Male Nude Mice, Day -4: corrected group mean; for Tumor Growth in PC-82 Human Tumor in Male Nude Mice, Day -4: Day -4 (before treatment); for Δv/Δt (day 35-day 7): average tumor growth over 28 days from corrected group means. From the text:
As described in van Steenbrugge, G.J. et al., J. Urol 131: 812-817 (1984) van Steenbrugge G.J. et al., The Prostate 11: 195-210 (1987) and Redding, T.W. et al., Cancer Research 52, 2538-2544 (1992), male nude mice (Hsd:athymic, Nude-nu) were obtained from Harlan Sprague Dawley. Mice were housed in sterilized micro-isolators and fed autoclaved ABLE® rodent chow (Purina Mills Inc., St. Louis, MO) and deionized water, adlibitum. Tumor-donating mice were first anesthetized using sodium pentobarbital and then sacrificed by cervical dislocation. The tumor was subsequently excised and placed in a petri dish containing ice-cold Hanks balanced salt solution. Tumors were cut into 2-3 mm cubes for implantation. Recipient animals were first anesthetized with 50 mg/kg pentobarbital, then implanted, by use of a trocar, with tumor fragments (one per mouse) in the dorsal area. Animals were separated into two control groups, one with vehicle alone and the other castrated, and the treatment groups, where n is the number of animals in each group.
Animals were selected for treatment groups based on tumor size. Each test compound was prepared as a solution or suspension in a lecithin vehicle (L-α-phosphatidylcholine type XV-E) containing methylparaben and propylparaben at a dose volume of 10 cc/kg. Animals were treated for 42 days by oral gavage (per os) seven days per week. Twenty-four hours after the last treatment the animals were euthenized by CO2 and tumors were removed and weighed. During the study period, mice were weighed and palpated weekly for tumors. In Table 5, average tumor growth is determined from the corrected group means over a 28 day period after treatment was started. […] The following animal data was deleted before computation of the corrected mean data in Table 5, Fig. 1: animals 4 and 44; Fig. 2: animals 10, 38 and 42; Fig. 3: Animal 39; Fig. 4: Animals 8, 9 and 49; Fig. 5: Animals 37 and 40 and 41.
Table 5 illustrates the average tumor growth in animals treated with 4-aza-17β-(cyclopropyloxy)-5α-androstan-3-one (MDL 103432; 50 mg/kg B.I.D.) 4-aza-17β-(cyclopropylamino)-androst-5(6)-en-3-one (MDL 105831; 50 mg/kg B.I.D.) and flutamide (MDL 15,910; 15 mg/kg B.I.D.), a known androgen receptor antagonist. The average growth rate of each tested compound relative to the vehicle and castrated controls is consistent with the in vivo inhibition of androgens.

The target of test [1] is T1, cynomolgus monkey C17,20 lyase (Macaca fascicularis, UniProt Q2XVA1).
T1 construct: microsomal preparations of the enzyme from testicular tissue; from tissue; host or cells: cynomolgus monkey testes, microsomes
T1 sequence (Q2XVA1 1-508): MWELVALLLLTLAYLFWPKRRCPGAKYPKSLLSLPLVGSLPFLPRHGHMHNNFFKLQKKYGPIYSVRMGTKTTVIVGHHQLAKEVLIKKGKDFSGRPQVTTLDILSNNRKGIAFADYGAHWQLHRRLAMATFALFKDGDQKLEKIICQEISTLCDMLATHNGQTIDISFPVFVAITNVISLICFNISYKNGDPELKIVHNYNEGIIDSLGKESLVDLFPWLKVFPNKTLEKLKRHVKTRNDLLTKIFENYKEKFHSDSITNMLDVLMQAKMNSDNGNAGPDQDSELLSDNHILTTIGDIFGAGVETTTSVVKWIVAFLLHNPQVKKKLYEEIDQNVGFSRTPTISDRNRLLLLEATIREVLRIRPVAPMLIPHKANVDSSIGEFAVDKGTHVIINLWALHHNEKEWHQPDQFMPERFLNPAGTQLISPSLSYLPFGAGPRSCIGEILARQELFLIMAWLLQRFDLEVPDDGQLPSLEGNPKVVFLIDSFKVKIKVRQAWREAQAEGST
Kind of test: In vitro C17,20 lyase assay, testicular microsomes. The note with it: mean of duplicates. Type of test: biochemical. The procedure:
In vitro C17,20 lyase assays: Compounds were tested for inhibition of cynomolgus monkey C17,20 lyase in vitro using microsomal preparations of the enzyme from testicular tissue. Testes were removed from anesthetized animals and flash frozen in liquid nitrogen. Microsomes were isolated as described in Schatzman et al., Anal. Biochem. 175, 219-226 (1988). The compound to be tested was dissolved in dimethyl sulfoxide and diluted in 0.05 M potassium phosphate buffer, pH 7.4, to give the desired concentrations of test compound, in an amount which contributed 0.1% v/v DMSO to the total assay volume. Assays contained 0.05 M potassium phosphate buffer, pH 7.4, an NADPH regenerating system (1 mM NADPH, 5 mM glucose-6-phosphate, 1 IU/mL glucose-6-phosphate dehydrogenase), test compound, substrate and microsomal protein in a total volume of 0.2 mL. Control assays contained all components, including dimethyl sulfoxide, but not test ccmpound. All assays were performed in duplicate. The test compound was incubated with 20 to 62 µg/mL microsomal protein, buffer, and the NADPH regenerating system described above at 34°C for 0 or 40 minutes. Aliquots of 180 µL were then removed and assayed for enzyme activity by addition to 7-[^3H]-17α-hydroxypregnenolone (11.2 mCi/mmole; 0.2 µCi per assay) plus unlabeled 17α-hydroxypregnenolone dissolved in DMSO, contributing 2.5% v/v to the final assay mix, and phosphate buffer to give a total substrate concentration of 0.05 µM (=Km) per assay and subsequent incubation at 34°C for 6 minutes. Each assay was terminated by addition of 5 mL of chloroform:methanol (2:1). Carrier steroids representing substrates and produces (17α-hydroxypregnenolone, dehydroepiandrosterone, and androst-5-ene-3β,17β-diol) and 0.8 mL of distilled, deionized water were also added at this time. The steroids were extracted by the method of Moore and Wilson (Methods in Enzymol., eds. O. Malley, B.W. and Hardman, J.G. 36, 1975, pp. 466-474). The organic phase containing the steroids was evaporated using nitrogen gas, the residues dissolved in 18% tetrahydrofuran (v/v) in hexane, and the steroids were separated by HPLC on a Si60 (5 µm) column (250 x 4 mm) using a gradient of 18-22% tetrahydrofuran (v/v) in hexane. Radioactivity in the steroid peaks was measured using a Radiomatic® Model ES or Model A515 Flo-One® detector.
The enzyme activity for each assay was calculated from the percent conversion of substrate to products, and the results were expressed as percent inhibition of control. The following results were obtained, wherein the values indicated are the mean of duplicate determinations: Table 1: […]

Broadly, the inhibition is how much of the control response was suppressed.

With `CC12CCC3C(CC[C@H]4NC(=O)CCC34C)C1CC[C@@H]2OC1CC1` (stereo partly drawn) [MDL 103,432, 17β-Cyclopropyloxy-4-aza-5α-androstan-3-one], in the test on PC-82 Human Tumor, the “Tumor Growth in PC-82 Human Tumor in Male Nude Mice, Day 7” value amounted to 180.2 mm^3; the “Tumor Growth in PC-82 Human Tumor in Male Nude Mice, Day 15” value is given as 220,2 mm^3; the “Tumor Growth in PC-82 Human Tumor in Male Nude Mice, Day 21” value is recorded as 288.2 mm^3; the “Tumor Growth in PC-82 Human Tumor in Male Nude Mice, Day 28” value is recorded as 385.9 mm^3. In the test with PC-82 Human Tumor, the “Tumor Growth in PC-82 Human Tumor in Male Nude Mice, Day 35” value turned out to be 427.4 mm^3; the “Tumor Growth in PC-82 Human Tumor in Male Nude Mice, Day -4” value is reported as 122.2 mm^3; the “Δv/Δt (day 35-day 7)” value turned out to be 8.83 mm^3/day. Also, in test [1] (preincubation 0 min), at 0.1 µM the inhibition was 23.4%, the inhibition at 1 µM came out at 33% and the inhibition at 10 µM was determined as 68.3%. In test [1] (preincubation 40 min), testing at 0.1 µM gave an inhibition of 20.2%, the inhibition at 1 µM amounted to 54.2% and the inhibition at 10 µM came to 80.2%.
`C[C@]12CC[C@H]3[C@@H](CC=C4NC(=O)CC[C@@]43C)[C@@H]1CC[C@@H]2NC1CC1` [MDL 105,831, 17β-Cyclopropylamino-4-aza-androst-5-en-3-one]: in the test on PC-82 Human Tumor, the “Tumor Growth in PC-82 Human Tumor in Male Nude Mice, Day 7” value amounted to 188.3 mm^3; the “Tumor Growth in PC-82 Human Tumor in Male Nude Mice, Day 15” value is given as 254.3 mm^3; the “Tumor Growth in PC-82 Human Tumor in Male Nude Mice, Day 21” value is 304.3 mm^3; the “Tumor Growth in PC-82 Human Tumor in Male Nude Mice, Day 28” value was found to be 530.7 mm^3. Further, in the test on PC-82 Human Tumor, the “Tumor Growth in PC-82 Human Tumor in Male Nude Mice, Day 35” value is on record as 531.1 mm^3; the “Tumor Growth in PC-82 Human Tumor in Male Nude Mice, Day -4” value stood at 124.9 mm^3; the “Δv/Δt (day 35-day 7)” value is 12.24 mm^3/day. In test [1] (preincubation 0 min), this compound yielded an inhibition at 0.1 µM of 11.4%, an inhibition at 1 µM of 26% and an inhibition at 10 µM of 69.6%. In test [1] (preincubation 40 min), 0.1 µM produced 24.6% inhibition, the inhibition at 1 µM turned out to be 53.8% and 10 µM produced 100% inhibition.
